Reference: PMC8541353, “A Novel Phenylpyrrolidine Derivative: Synthesis and Effect on Cognitive Functions in Rats with Experimental Ishemic Stroke” (Molecules, 2021)

Legend:
rats with MCAO [1] = test: Cerebral infarct volume by MRI in transient MCAO model; assay type: in vivo, Wistar rats; conditions: for Infarct volume at 24 h: 24 h after MCAO, before treatment (group baseline); for Infarct volume by day 28: day 28 after MCAO, compound 1 125 mg kg^−1, piracetam 300 mg kg^−1 daily from 24 h to day 5, p = 0.17
Procedure: A MCAO animal model was used to characterize the effects of compound 1 on the development and resolution of stroke. At the baseline, we performed the MRI and hole-board test before MCAO surgery. Once animals recovered after the surgery, we stratified them based on their background psycho-emotional status and performed a control MRI to access whether the occlusion was sufficient or not. […] From 24 h to day 7, the neurological status was assessed daily according to the neurological scale (mNSS). By the end of day 7, animals underwent MRI. In addition, MRI was performed on days 14 and 28 (Shceme 3)The hole-board test was repeated on days 10 and 24. The degree of motor function impairment, the deficit of exploratory behavior, and the recovery process were assessed in the beam walking test (BWT), which was performed twice on days 12 and 14. An open field test was carried out on days 16 and 26.
Before conducting the experiments, the animals underwent the HBT and were allocated to groups based on their behavior score and weight. Kullback–Leibler divergence method for allocation based on two numerical parameters was used for allocation. We used a sum score for behavior tests and weight. Subsequently, two experimental series were performed. In the first series, rat behavior without stroke modeling after injection of compound 1 (experimental group, n = 10) or saline (control group, n = 10) was evaluated (Scheme 3a). […] Compound 1 was injected at a dose of 125 mg kg^−1 and an injection volume of 0.5 mL. […] For the experiments, the following predetermined exclusion criteria were used: (1) incomplete MCAO indicated by an incomplete lesion on magnetic resonance imaging (MRI) after 24 h [n = 4]and (2) post-operative weight loss of > 20% and severe animal condition within the first post-stroke 48 h [n = 3]. Animals reached humane endpoints based on the absence of nociceptive reflex withdrawal responses, hypothermia, and heart rate reduction to 100–150 beats min^−1. As steroid treatment could have influenced the experiment, rats were humanely euthanized according to the ethical protocol. The experiment design is presented in Scheme 3b.
The rats were anesthetized initially using 3% isoflurane and maintained with a mixture of 2–2.5% isoflurane and 97.5–98% atmospheric air (EZ-7000 Classic System, E-Z Anesthesia® Systems). […]
During the procedure, the rats were maintained under inhalation anesthesia as mentioned above. […] The volume of the hyperintensity ischemic stroke area was calculated by summing the areas of adjacent cross-sections using the following formula: Volume = (S1 + … + Sn) × (h + d), where S1, …, Sn are areas measured in n slices, h is the slice thickness, and d is the interval between slices.

rats with MCAO [2] = test: Survival within 28 days after MCAO (Kaplan-Meier, log-rank); assay type: in vivo, Wistar rats; conditions: 28 days after first administration, log-rank test
Procedure: All statistical analyses were performed using the IBM® SPSS® Statistics Version 23.0 and R software Version 3.3.2 (R Foundation for Statistical Computing, Vienna, Austria). For normally distributed quantitative continuous variables, the mean and standard deviation (SD) values were calculated and presented as descriptive statistics. For ordinal variables, median and 25- and 75-percentiles were calculated. For qualitative variables, the absolute count and percentage value for each category were calculated. For quantitative variables, the normality of distribution was verified using frequency histograms and Kolmogorov–Smirnov test. A two-tailed p-value < 0.05 was considered statistically significant. To compare changes in structure displacement, lesion size, and neurological scale, a general linear repeated measures model with a group as a fixed factor was used. One-way multivariate analysis of variance was used in the analysis of behavior. Experimental groups were designed to have an equal sample size (8 vs. 8 rats) based on sample size calculations for the independent sample t-test using Statistica 10 software (type I error 0.05, type II error 0.20). Animal survival was estimated by the Kaplan–Meier method using the log-rank test.

SMILES: O=C(CN1CC(c2ccccc2)CC1=O)NCCS(=O)(=O)[O-].[K+] (stereo not drawn) [Compound 1, potassium 2-[2-(2-oxo-4-phenylpyrrolidin-1-yl)acetamido]ethane-1-sulfonate]
- Infarct volume at 24 h (rats with MCAO [1]): 133.6 ± 24.1 mm^3
- Infarct volume by day 28 (rats with MCAO [1]): 91.2 ± 18.9 mm^3
- Survival of animals vs other groups (rats with MCAO [2]): no significant differences

SMILES: NC(=O)CN1CCCC1=O [Piracetam, reference compound]
- Infarct volume at 24 h (rats with MCAO [1]): 128.5 ± 15.5 mm^3
- Infarct volume by day 28 (rats with MCAO [1]): 86.0 ± 13.5 mm^3
- Survival of animals vs other groups (rats with MCAO [2]): no significant differences
